How the values were obtained:
MDM2 [1] = target: T1, MDM2 (Homo sapiens, UniProt Q00987); experiment: MDM2 fluorescence polarization competition assay (displacement of FP53 peptide probe); type: binding; conditions: purified macrocycles, 1.2 μM MDM2; read-out: IC50 displacement of fluorescent peptide probe from MDM2
Experimental: The library was screened by dispensing to the reactions in the 384-mictrowell plates the target protein MDM2 and a reporter peptide to measure binding of the macrocycles.
One fluorescence anisotropy reading was taken with a Tecan Infinite F200 Pro fluorescence plate reader (excitation at 485 nm, emission at 535 nm) at 25° C.The percentage of probe displacement was calculated using to the following formula,
Volumes of 5 μL of purified macrocycles (20 mM in DMSO) were serial diluted two-fold in 100% DMSO in a low dead-volume ECHO source plate. Using acoustic droplet transfer, 150 nl of each dilution was transferred to a 384 well low volume polystyrene plate (Nunc, 264705). […] Fluorescence anisotropy was measured as described above. The percentage of bound inhibitor was calculated using the following equation
where N is the average anisotropy of the DMSO controls, X is the anisotropy value obtained for each well, and P is the average anisotropy of the unbound probe. The ICsos were determined by plotting the percent of bound inhibitor against the logarithm of the corresponding macrocycle concentration, and the curves were fitted in GraphPad Prism 6 as described above.

MDM2 [2] = target: T1, MDM2; experiment: Determining Kds of MDM2 binders by SPR; type: binding; conditions: unlabeled macrocycles, single cycle kinetics
Experimental: FIG. 30. Binding of macrocycles to MDM2 measured by SPR. a, Single-cycle SPR sensorgrams for fluorescein-labeled macrocycles, positive control nutlin-3a (not fluorescein labeled), and negative controls (thrombin inhibitors; not fluorescein labeled). RU, response unit. b, Single-cycle SPR sensorgrams for macrocycles M6, M7, M8 and M10 (not fluorescein-labeled), performed in triplicate.
Experiments were performed using a GE Healthcare Biacore 8K instrument. MDM2 (10 μg/mL) was dissolved in 10 mM MES buffer (pH 6.0) and immobilized on three channels of a CM5 series S chip (Cytiva, 29104988) using EDC/NHS amine coupling conditions in running buffer (10 mM PBS pH 7.4, 150 mM NaCl, 3 mM KCI, and 0.005% v/v Tween-20). Typical immobilization level was 6,000 to 7,000 resonance units (RUs). The reference cell was treated the same way without MDM2. For the measurement of binding kinetics and dissociation constants, five serial dilutions (3-fold) of macrocycles plus a DMSO blank were prepared in running buffer (10 mM PBS PH 7.4, 150 mM NaCl, 3 mM KCl, and 0.005% v/v Tween-20, and 0.5% v/v DMSO) and analyzed in single cycle kinetics mode with contact and dissociation times of 120 seconds and 60 seconds, respectively.

thrombin [3] = target: T2, thrombin (Homo sapiens, UniProt P00734); experiment: Thrombin inhibition screen of the 96-member disulfide-cyclized peptide library and Ki of purified hit (Example 2); type: biochemical
T2 construct: two polypeptide chains of 36 (light chain) and 259 amino acid residues (heavy chain); purchased Haematologic Technologies HCT-0020
Experimental: FIG. 7. Library design, peptide recovery quantification by absorption, and thrombin inhibition of the cyclic peptide library. (a) Design of library comprising 96 different peptides and structures of unnatural amino acids used in library. (b) Scatter plot of cyclic peptide concentrations (mM in DMSO) for the 96 synthesized cyclic peptides quantified by absorption at 280 nm. […] (c) Thrombin inhibition measured at an average cyclic peptide concentration of 11 μM. The peptides are ordered according to their thrombin inhibition activity in the first screen (black dots; highest to lowest activity). Green dots indicate thrombin inhibition for the same cyclic peptides measured in a second screen using the same conditions.
Despite the relatively small number of only 96 cyclic peptides and thus small chance of finding an active compounds, we performed a screen against thrombin, an important target for developing anticoagulation therapeutics, using a compound concentration of around 10 μM. […] Biological screens are typically performed at compound concentrations of around 10 μM, which means that the 100% DMSO and 150 mM DIPEA in the around 10 mM peptide stocks get 1000-fold diluted to reach concentrations of 0.1% and 150 μM, respectively, that unlikely affect most biological assays.

MDM2 [4] = target: T1, MDM2; experiment: Competition binding experiment of fluorescein-labeled M10 with nutlin-3a on MDM2; conditions: fluorescence polarization
Experimental: We subsequently performed a third cycle of library synthesis and screening, where we acylated the nine most promising scaffolds of the previous screens with 15 additional carboxylic acids, which were mostly cinnamic acid derivatives with larger substituents. We subsequently identified M10, which is a macrocycle based on the original scaffold and acylated with acid 120 that displaced the fluorescent probe used, F-M8, to 84% from MDM2 at 750 nM, and more efficiently than the parent compounds, M8 and M9 (FIG. 18c). […] With the fluorescein conjugate, we also performed a competition experiment with nutlin-3a that binds to a defined hydrophobic pocked of MDM2 (B. Anil et al., Acta Crystallogr. Sect. D Biol. Crystallogr. 2013, 69, 1358-1366) and is a precursor of nutlin-based clinical candidates.

thrombin [5] = target: T2, thrombin; experiment: Substrate KM for protease screen, thrombin; type: biochemical
Experimental: Crude macrocyclic libraries (4 mM DMSO stocks in 384-well LDV plates were transferred into 1536-well microtiter OptiPlates via ADE. Applied buffered solutions were prepared by filtration through PTFE syringe filters (0.22 μm) and assays were initiated by addition of protease (4.41 μl/well) in appropriate buffer (see list below) supplemented with bovine serum albumin (BSA; 0.1% w/v) and dispensed using a CERTUS automated liquid handler. Plates were incubated for 10 min at ambient temperature before fluorogenic substrate in appropriate buffer (4.5 μl) was added using a CERTUS automated liquid handler. Plates were centrifugated (800 g, 2 min) and fluorescence intensity was measured using a PHERAstar plate reader (excitation 384 nm, emission 440 nm) in time increments of 150 s over 15 min. Slopes of fluorescence increase (m) were calculated with Microsoft Excel (vers. 16.56). Negative controls were prepared without macrocycle. An average of 12 negative controls was used to calculate residual activities using Equation I below: […]
where [S]0 is the initial substrate concentration and KM is the Michaelis-Menten constant^12 for the enzyme and substrate.

T1 sequence (Q00987 whole entry): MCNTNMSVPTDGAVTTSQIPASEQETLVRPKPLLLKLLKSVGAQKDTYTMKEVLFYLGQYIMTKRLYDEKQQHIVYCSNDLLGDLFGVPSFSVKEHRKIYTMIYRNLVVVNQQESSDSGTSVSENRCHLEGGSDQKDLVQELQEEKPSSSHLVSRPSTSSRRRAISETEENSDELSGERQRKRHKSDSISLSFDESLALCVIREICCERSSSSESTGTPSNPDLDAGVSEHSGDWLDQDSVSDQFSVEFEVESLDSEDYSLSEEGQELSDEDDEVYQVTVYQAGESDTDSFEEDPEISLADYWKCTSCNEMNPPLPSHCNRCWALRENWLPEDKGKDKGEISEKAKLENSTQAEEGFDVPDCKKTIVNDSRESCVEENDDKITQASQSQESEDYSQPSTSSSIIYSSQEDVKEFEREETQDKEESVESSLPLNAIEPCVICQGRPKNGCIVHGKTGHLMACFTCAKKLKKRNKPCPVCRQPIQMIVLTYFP

IC50 (MDM2 [1]) | Kd (MDM2 [2]) | Compound | other results
~1 µM | 0.6 ± 0.3 µM | O=C(NC[C@@H]1NC(=O)[C@H]2CCCN(C2)C(=O)CCSSCCNC(=O)[C@H](Cc2c[nH]c3ccccc23)NC1=O)c1ccc(Cl)s1 [M6] | 
 |  | Mpa-Tyr-II-Pro-Mea | Ki (thrombin [3]; HPLC-purified disulfide cyclized peptide): 13 ± 1 µM; reduction of thrombin activity (thrombin [3]; crude cyclic peptide, compound concentration of around 10 μM): 52%
 |  | nutlin-3a | competition with fluorescein conjugate of M10 for MDM2 (MDM2 [4]): did not compete
~1 µM | 0.169 ± 0.093 µM | O=C(/C=C/c1ccccc1)NC[C@@H]1NC(=O)[C@H]2CCCN(C2)C(=O)CCSSCCNC(=O)[C@H](Cc2c[nH]c3ccccc23)NC1=O [M8] | 
~1 µM | 0.55 ± 0.19 µM | O=C(NC[C@@H]1NC(=O)[C@H]2CCCN(C2)C(=O)CCSSCCNC(=O)[C@H](Cc2c[nH]c3ccccc23)NC1=O)c1ccc(Cl)cc1 [M7] | 
 |  | Cc1cc(=O)oc2cc(NC(=O)[C@H](CCCNC(=N)N)NC(=O)CNC(=O)CNC(=O)OCc3ccccc3)ccc12 [Cbz-G-G-R-AMC] | Km (thrombin [5]): 305 ± 46 µM

— US20240279845A1, “METHOD FOR PREPARING A LIBRARY OF PEPTIDES OR A PEPTIDE” (ECOLE POLYTECHNIQUE FEDERALE DE LAUSANNE (EPFL), priority 2021, published 2024)
